Measured values: patent US10870638B2, “Pyridazinone compound or its salt, and herbicide containing it” (ISHIHARA SANGYO KAISHA, LTD., priority 2016, dated 2020)

Legend:
Type in all cases: in vivo
Conditions in all cases: active ingredient amount 31 g/ha, 14th day after application
[1] = system: barnyardgrass (Echinochloa crus-qalli L.); experiment: Test Example 1: foliar treatment, growth inhibition rate on 14th day
Procedure, shortened: (§1)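 Visual 0–100% inhibition scoring (100 = complete kill) at 14 days after foliar treatment of soil-grown seedlings at species-specific leaf stages, with the compound sprayed as a wettable powder or emulsifiable concentrate dilution.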

corn (Zea mays L.) [2] = experiment: as above
Procedure, shortened: as §1

[3] = system: crabgrass (Digitaria sanquinalis L.); experiment: as above
Procedure, shortened: as §1

[4] = system: green foxtail (Setaria viridis L.); experiment: as above
Procedure, shortened: (§2)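 Growth inhibition rates (%) come from visual observation on the 14th day following a single foliar application. Soybean was sprayed at the primary leaf stage, rice at 0.2–2.7 leaves, wild oat at 0.4–1.2, green foxtail at 0.5–3.2.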

[5] = system: italian ryegrass (Lolium multiflorum Lam.); experiment: as above
Procedure, shortened: as §1

[6] = system: redroot pigweed (Amaranthus retroflexus L.); experiment: as above
Procedure, shortened: as §1

rice (Oryza sativa L.) [7] = experiment: as above
Procedure, shortened: as §2

[8] = system: soybean (Glycine max Merr.); experiment: as above
Procedure, shortened: as §2

[9] = system: wheat (Triticum aestivum L.); experiment: as above
Procedure, shortened: as §1

[10] = system: wild oat (Avena fatua L.); experiment: as above
Procedure, shortened: as §2

[11] = system: barnyardgrass (Echinochloa crus-qalli L.); experiment: Test Example 2: soil application on the day after sowing, growth inhibition rate on 14th day
Procedure, shortened: (§3)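 Pre-emergence soil spray, day after sowing; WP or EC formulations diluted to 1,000 L/ha water at set a.i. rates. Visual growth inhibition %, 0 = untreated, 100 = complete kill, read at day 14.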

corn (Zea mays L.) [12] = experiment: as above
Procedure, shortened: as §3

[13] = system: crabgrass (Digitaris sanquinalis L.); experiment: as above
Procedure, shortened: as §3

[14] = system: green foxtail (Setaria viridis L.); experiment: as above
Procedure, shortened: as §3

[15] = system: prickly sida (Sida spinosa L.); experiment: as above
Procedure, shortened: as §3

[16] = system: redroot pigweed (Amaranthus retroflexus L.); experiment: as above
Procedure, shortened: as §3

rice (Oryza sativa L.) [17] = experiment: as above
Procedure, shortened: as §3

[18] = system: soybean (Glycine max Merr.); experiment: as above
Procedure, shortened: as §3

[19] = system: velvetleaf (Abutilon theophrasti MEDIC.); experiment: as above
Procedure, shortened: as §3

[20] = system: wheat (Triticum aestivum L.); experiment: as above
Procedure, shortened: as §3

[21] = visual, 0 = non-treated, 100 = complete kill

| SMILES | Growth inhibition rate (%) Barnyardgrass [1] [%] | Growth inhibition rate (%) Corn (corn (Zea mays L.) [2]) [%] | Growth inhibition rate (%) Crabgrass [3] [%] | Growth inhibition rate (%) Green foxtail [4] [%] | Growth inhibition rate (%) Italian ryegrass [5] [%] | Growth inhibition rate (%) Redroot pigweed [6] [%] | Growth inhibition rate (%) Rice (rice (Oryza sativa L.) [7]) [%] | Growth inhibition rate (%) Soybean [8] [%] | Growth inhibition rate (%) Wheat [9] [%] | Growth inhibition rate (%) Wild oat [10] [%] | Growth inhibition rate (%) Barnyardgrass [11] [%] | Growth inhibition rate (%) Corn (corn (Zea mays L.) [12]) [%] | Growth inhibition rate (%) Crabgrass [13] [%] | Growth inhibition rate (%) Green foxtail [14] [%] | Growth inhibition rate (%) Prickly sida [15] [%] | Growth inhibition rate (%) Redroot pigweed [16] [%] | Growth inhibition rate (%) Rice (rice (Oryza sativa L.) [17]) [%] | Growth inhibition rate (%) Soybean [18] [%] | Growth inhibition rate (%) Velvetleaf [19] [%] | Growth inhibition rate (%) Wheat [20] [%] | further results |
| --- | --- | --- | --- | --- | --- | --- | --- | --- | --- | --- | --- | --- | --- | --- | --- | --- | --- | --- | --- | --- | --- |
| CC(=O)Oc1c(C)nn(C)c(=O)c1-c1cc(Oc2nc3ccc(Br)cc3s2)ccc1C [Compound 2-158] | 100 | 0 | 93 | 98 | 65 | 0 | 60 | 0 | 93 | 65 | 80 | 10 | 70 | 95 | 0 | 0 | 0 | 0 | 0 | 0 | – |
| Cc1nn(C)c(=O)c(-c2cc(Oc3nc4ccc(Cl)cc4o3)ccc2OC(F)(F)F)c1O [Compound 2-175] | 98 | 95 | 98 | 99 | 50 | 0 | 0 | 10 | 0 | 10 | 100 | 30 | 95 | 99 | 0 | 0 | 90 | 0 | 0 | 0 | – |
| Cc1ccc(Oc2nc3ccc(Br)cc3s2)cc1-c1c(O)c(C)nn(C)c1=O [Compound 2-156] | 98 | 0 | 93 | 98 | 30 | 0 | 0 | 0 | 0 | 10 | 83 | 0 | 75 | 98 | 0 | 0 | 15 | 0 | 0 | 0 | – |
| CCc1nn(C)c(=O)c(-c2cc(Oc3cnc4cc(Cl)ccc4n3)ccc2C)c1O [Compound 3-34] | 100 | 15 | 95 | 100 | 99 | 0 | 90 | 30 | 90 | 95 | 99 | 20 | 65 | 98 | 0 | 0 | 20 | 0 | 0 | 0 | – |
| CCc1nn(C)c(=O)c(-c2cc(Oc3ncc(C(F)(F)F)cc3Cl)ccc2C)c1O [1-98] | 88 | 80 | 30 | 60 | 78 | 0 | 0 | 10 | 20 | 65 | 95 | 0 | 20 | 30 | 0 | 0 | 35 | 0 | 0 | 0 | – |
| Cc1ccc(Oc2cnc3cc(Cl)ccc3n2)cc1-c1c(OC(=O)COc2ccccc2)c(C)nn(C)c1=O [Compound 3-48] | – | – | – | – | – | – | – | – | – | – | 98 | 0 | 60 | 100 | 0 | 0 | 0 | 0 | 0 | 20 | Growth inhibition rate (%) Barnyardgrass [1, 21]: 100%; Growth inhibition rate (%) Corn (corn (Zea mays L.) [2]; [21]): 25%; Growth inhibition rate (%) Crabgrass [3, 21]: 98%; Growth inhibition rate (%) Green foxtail [4, 21]: 100%; Growth inhibition rate (%) Italian ryegrass [5, 21]: 95%; Growth inhibition rate (%) Redroot pigweed [6, 21]: 0%; Growth inhibition rate (%) Rice (rice (Oryza sativa L.) [7]; [21]): 0%; Growth inhibition rate (%) Soybean [8, 21]: 10%; Growth inhibition rate (%) Wheat [9, 21]: 90%; Growth inhibition rate (%) Wild oat [10, 21]: 75% |
| CCn1nc(C)c(O)c(-c2cc(Oc3nc4ccc(Cl)cc4o3)ccc2C)c1=O [Compound 2-176] | 100 | 80 | 99 | 100 | 85 | 0 | 10 | 0 | 0 | 25 | 100 | 0 | 98 | 99 | 0 | 0 | 60 | 0 | 0 | 0 | – |
| CCc1ccc(Sc2ncc(C(F)(F)F)cc2Cl)cc1-c1c(OC(C)=O)c(C)nn(C)c1=O [1-46] | 100 | 98 | 100 | 100 | 99 | 30 | 80 | 0 | 98 | 100 | 80 | 0 | 90 | 99 | 0 | 0 | 30 | 0 | 0 | 30 | – |
| Cc1ccc(Oc2nc3cc(Cl)ccc3o2)cc1-c1c(O)cnn(C)c1=O [Compound 2-173] | 99 | 65 | 95 | 88 | 90 | 0 | 85 | 0 | 75 | 35 | 65 | 10 | 80 | 10 | 0 | 0 | 20 | 0 | 0 | 0 | – |
